The values below come from patent US5486596A, “Analogues of 8-D-homoarginine vasopressin” (Ceskoslovenska akademie ved, priority 1989, dated 1996).

Read-outs that look alike come from different tables or passages of the source. Bridge positions count the residues as written; N and C are the ends. Square brackets hold non-standard residues; d marks the D form. Peptide text beside a SMILES is read from it. dPhe(4-Et) = CCc1ccc(C[C@@H](N)C(=O)O)cc1; dPhe(4-Me) = Cc1ccc(C[C@@H](N)C(=O)O)cc1; Phe(4-Et) = CCc1ccc(C[C@H](N)C(=O)O)cc1; Phe(4-Me) = Cc1ccc(C[C@H](N)C(=O)O)cc1; d(hArg) = N=C(N)NCCCC[C@@H](N)C(=O)O; Mpa = O=C(O)CCS

Assay [1] deals with rats. Conditions: for Uterotonic activity: agonistic activity, rat.
Assay [2] concerns despinalized male rats. Conditions: for Pressoric activity: despinalized male rats.
Assay [3] concerns rats. The experiment in a line: antidiuretic activity according to Burn, dDAVP as standard. Particulars: rat, relative to the standard dDAVP. It counts as in vivo. The protocol:
The biological activity of the peptides was tested on rats, namely: the uterotonic activity (agonistic and antagonistic) according to the Holton's method (Holtdon, J.: Brit. J. Pharmacol., 3,328, 1960) modified by Munsick (Endocrinology, 66, 451, 1960), the inhibitory activity being expressed as pA2 (Eggen et al.: J. Gen. Physiol., 56, 250, 1970), the pressoric activity was determined on despinalized male rats according to Krejci et al. (Brit. J. Pharm. Chemother., 30, 497, 1967) and the antidiuretic activity according to Burn (Burn et al.: Biol. Stand. Oxford Univ. Press, London, 1950) with [deaminol, D-arginine^8 ]vasopressin (dDAVP) used as the standard.

The subject of assay [4] is FVIII. The experiment in a line: FVIII activity in squirrel monkeys (blood coagulation). The assay is classed as in vivo. Particulars: for FVIII/%: squirrel monkeys, saline control = 100% (basal value). The protocol: (§1) Compounds of the present invention ware evaluated for their ability to affect blood coagulation and fibrinolytic properties. The compounds were compared with [8-D-argenine]deamino vasopressin in squirrel monkeys. The findings of dissociated blood coagulation/fibrinolytic properties and the inhibitory properties are new and surprising properties for the series of vasopressin derived peptides.

Assay [5] concerns tPA. In words: tPA activity in squirrel monkeys (fibrinolytic properties). It counts as in vivo. Conditions: for tPA/%: squirrel monkeys, saline control = 100% (basal value). As to the method: as §1
The mark [6] stands for this setting: inhibitory activity expressed as pA2, despinalized male rats.
Where [7] appears, read: inhibitory (antagonistic) activity expressed as pA2, rat.

Take `COc1ccc(C[C@@H]2NC(=O)[C@@H](N)CSSC[C@@H](C(=O)N3CCC[C@H]3C(=O)N[C@H](CCCCNC(=N)N)C(=O)NCC(N)=O)NC(=O)[C@H](CC(N)=O)NC(=O)[C@H](CCC(N)=O)NC(=O)[C@H](Cc3ccccc3)NC2=O)cc1` [I, [2-O-methyltyrosine, 8-D-homoarginine]vasopressin]: the “Uterotonic activity, pA2” value in assay [1] is given as 7.7.

`Cc1ccc(C[C@@H]2NC(=O)CCSSC[C@@H](C(=O)N3CCC[C@H]3C(=O)N[C@H](CCCCNC(=N)N)C(=O)NCC(N)=O)NC(=O)[C@H](CC(N)=O)NC(=O)[C@H](CCC(N)=O)NC(=O)[C@H](Cc3ccccc3)NC2=O)cc1` [IX, [Mpr^1, L-p-MePhe^2, D--Har^8] vasopressin] ([Mpa][Phe(4-Me)]FQNCP[d(hArg)]G-NH2; disulfide 1-6): in assay [2] (rat, in vivo), the “Pressoric activity, pA2” value is 6.2. Also, the “Uterotonic activity, pA2” value in assay [1] came out at 8.38.

As to `COc1ccc(C[C@@H]2NC(=O)CCSSC[C@@H](C(=O)N3CCC[C@H]3C(=O)N[C@H](CCCCNC(=N)N)C(=O)NCC(N)=O)NC(=O)[C@H](CC(N)=O)NC(=O)[C@H](CCC(N)=O)NC(=O)[C@H](Cc3ccccc3)NC2=O)cc1` [VI, [1-mercaptopropionic acid, 2-O-methyltyrosine 8-D-homoarginine]vasopressin], the “Uterotonic activity, pA2” value in assay [1] amounted to 8.1.

In the case of `CCc1ccc(C[C@@H]2NC(=O)CCSSC[C@@H](C(=O)N3CCC[C@H]3C(=O)N[C@H](CCCCNC(=N)N)C(=O)NCC(N)=O)NC(=O)[C@H](CC(N)=O)NC(=O)[C@H](CCC(N)=O)NC(=O)[C@H](Cc3ccccc3)NC2=O)cc1` [VII, [Mpr^1, L-p-EtPhe^2, D--Har^8] vasopressin] ([Mpa][Phe(4-Et)]FQNCP[d(hArg)]G-NH2; disulfide 1-6), the “Pressoric activity, pA2” value in assay [2] (rat, in vivo) is 6.2. The “Uterotonic activity, pA2” value in assay [1] turned out to be 8.0.

Turning to `CCc1ccc(C[C@H]2NC(=O)CCSSC[C@@H](C(=O)N3CCC[C@H]3C(=O)N[C@H](CCCCNC(=N)N)C(=O)NCC(N)=O)NC(=O)[C@H](CC(N)=O)NC(=O)[C@H](CCC(N)=O)NC(=O)[C@H](Cc3ccccc3)NC2=O)cc1` [VIII, [Mpr^1, D-p-EtPhe^2, D--Har^8] vasopressin] ([Mpa][dPhe(4-Et)]FQNCP[d(hArg)]G-NH2; disulfide 1-6), the “Pressoric activity, pA2” value in assay [2] (rat, in vivo) was 6.35. The “Uterotonic activity, pA2” value in assay [1] is reported as 8.63.

Turning to `Cc1ccc(C[C@H]2NC(=O)CCSSC[C@@H](C(=O)N3CCC[C@H]3C(=O)N[C@H](CCCCNC(=N)N)C(=O)NCC(N)=O)NC(=O)[C@H](CC(N)=O)NC(=O)[C@H](CCC(N)=O)NC(=O)[C@H](Cc3ccccc3)NC2=O)cc1` [X, [Mpr^1, D-p-MePhe^2, D--Har^8] vasopressin] ([Mpa][dPhe(4-Me)]FQNCP[d(hArg)]G-NH2; disulfide 1-6), the “Uterotonic activity, pA2” value in assay [1] is given as 8.68.

Turning to “[2-p-ethyl-D-phenylalanine, 8-D-homoarginine]vasopressin [III]”, in assay [2] (setting [6]), the “Pressoric activity, pA2” value amounted to 6.5. For the same compound, the “Uterotonic activity, pA2” value in assay [1] (setting [7]) was 8.15. In assay [3], this compound had an Antidiuretic activity of less than 0.1 % dDAVP.

In the case of “[2-p-ethyl-L-phenylalanine, 8-D-homoarginine]vasopressin [II]”, in assay [2] (setting [6]), the “Pressoric activity, pA2” value came out at 6.5. Besides, the “Uterotonic activity, pA2” value in assay [1] (setting [7]) turned out to be 7.40. Further, in assay [3], the Antidiuretic activity is on record as less than 0.1 % dDAVP.

On to “[2-p-methyl-D-phenylalanine, 8-D-homoarginine]vasopressin”, for which the Pressoric activity in assay [2] is reported as 0.04 IU/mg. For the same compound, in assay [4], the FVIII/% is 55%. Moreover, the “Uterotonic activity, pA2” value in assay [1] (setting [7]) stood at 6.85. The Antidiuretic activity in assay [3] is recorded as less than 0.1 % dDAVP. For the same compound, in assay [5], the tPA/% stood at 65%.

On to “[2-p-methyl-L-phenylalanine, 8-D-homoarginine]vasopressin [IV]”, for which the Pressoric activity in assay [2] is on record as 0.04 IU/mg. This compound came in with an FVIII/% in assay [4] of 85%. Further, the “Uterotonic activity, pA2” value in assay [1] (setting [7]) turned out to be 6.85. Moreover, the Antidiuretic activity in assay [3] is on record as less than 0.1 % dDAVP. This compound had a tPA/% in assay [5] of 77%.

Regarding [8-D-arginine] deamino vasopressin, the “effect on expression of Factor VIII, in words” value in assay [4] (monkey, in vivo) is on record as “increase”. The FVIII/% in assay [4] was found to be 149%. In assay [5] (monkey, in vivo), the “effect on expression of tPA, in words” value was “increase”. Also, the tPA/% in assay [5] is 138.9%.

For “[D--Har^8 ] vasopressin [reference compound]”, the Uterotonic activity in assay [1] amounted to 0.9 IU/mg. Also, the Antidiuretic activity in assay [3] is ~ 1 % dDAVP.

In turn, “[Mpr^1, D--Har^8 ] vasopressin [reference compound]” showed a Pressoric activity in assay [2] of 0.28 IU/mg. In assay [4], this compound gave an FVIII/% of 127%. For the same compound, in assay [1], the Uterotonic activity was 0.8 IU/mg. Also, the Antidiuretic activity in assay [3] is ~ 5 % dDAVP. The tPA/% in assay [5] amounted to 88%.
